This is an account of results in article PMC6949113, “Preclinical evaluation of AT-527, a novel guanosine nucleotide prodrug with potent, pan-genotypic activity against hepatitis C virus” (PLoS ONE, 2020).

Where “and” joins values, the source holds several entries; their conditions need not be identical. Equal values may be shown once. Marks after values point to notes of the source that are not given here. Where only a bound is given, the exact number is not on record here.

The nature of data set [1]: Intracellular metabolism in human hepatocytes. The data set is classed as in vitro ADME. The note with it: human hepatocytes. Here is the method: (§1) Hepatocytes. […] Cryopreserved male mouse (CD1), and fresh male Beagle dog and male cynomolgus monkey hepatocytes were obtained from BioreclamationIVT (Baltimore, MD) and were similarly plated with Matrigel in 6- or 24-well plates and maintained overnight in InVitroGRO™HI medium with Torpedo™ antibiotic (BioreclamationIVT). The protocol described above for measuring AT-511 and its metabolites in Huh-7 cells was repeated with the five different hepatocytes. Untreated cells were collected at 24 h, and the protein content of the cell lysates were determined using a bicinchoninic acid protein assay kit to assess the number of cells in each incubation. Separately, plated human hepatocytes were incubated for 6 h with 100 μM AT-511, followed by washout periods of 0, 2, 6, 18 and 30 h.
(§2) S3 Protocol. LC-MS/MS analysis of AT-511 and metabolites in cultured cells. The supernatant extracts of each hepatocyte and Huh-7 cell incubation were separately analyzed by four different LC-MS/MS methods for quantitation of phosphoramidates, nucleosides, monophosphates, and triphosphates (methods 1, 2, 3 and 4, respectively), using synthetic reference standards of actually and potentially present compounds and using structurally related analogs as internal standards. Briefly, a Luna PFP (2), 5 µm, 100 x 4.6 mm column and an AB Sciex API-6500 mass spectrometer (ESI positive ion, MRM mode) were used for methods 1-3 and an XBridge Oligonucleotide, BEH C18, 2.5 µm, 50 x 2.1 mm column and a Thermo QE Plus mass spectrometer (electrospray, negative ion mode) were used for method 4. For methods 1 and 2, mobile phases A (10 mM ammonium acetate in water) and B (acetonitrile:methanol, 1:1, v/v) were used to elute samples (5 µL) at 1 mL/min with 15% B for 1.5 min followed by a linear gradient to 75% B over 1 min (method 1) or with 54% B for 1.3 min followed by a linear gradient to 90% B over 1.2 min. Method 3 was the same except mobile phase A was 0.3% acetic acid in water, […] and samples were eluted with 3% B for 3 min followed by a linear gradient to 55% B over 1.2 min. For method 4, mobile phase A (3 mM ammonium formate with 10 mM dimethylhexylamine (DMHA) in water) and mobile phase B (3 mM ammonium formate with 10 mM DMHA in acetonitrile:water, 1:1, v/v) were used to elute samples at 0.4 mL/min with 0% B for 1.5 min followed by a linear gradient to 100% B over 2 min and ending with an isocratic elution for 0.5 min at 100% B.

A short description of data set [2]: Intracellular metabolism in mouse hepatocytes. It counts as in vitro ADME, mouse (CD1). The method, then:
as §1, §2

Data set [3] can be described thus: Intracellular metabolism in dog hepatocytes. The data set is classed as in vitro ADME, Beagle dog. The method, then:
as §1, §2

Data set [4] can be described thus: Monkey PK study, liver and heart tissue levels. It counts as in vivo, cynomolgus monkey. As to conditions: monkey; for Mean Concentration at 4 hr Postdose, Heart: footnoted values extrapolated below LLOQ. From the text: Monkey PK study. Male non-naïve cynomolgus monkeys were obtained from Hainan Jingang Laboratory Animal Co., Ltd. (Hainan, China), group housed during the 5-day acclimation period or individually housed during the study in stainless steel mesh cages, provided ad libitum access to RO water, fed twice daily (~120 g Certified Monkey Diet daily; Beijing Vital Keao Feed Co., Ltd., Beijing, China) and given daily treats of fresh fruit. Additional environmental enrichment included classical music and cartoons. Three groups of 5 monkeys each were administered 30, 100 or 300 mg/kg AT-527 as a powder filled in empty porcine hard gelatin capsules (size 0). The monkeys were fasted overnight prior to dosing and fed 4 h after dosing. Three dosages were selected to provide assessments of dose proportionality, the top two representing potential doses for a repeated oral dose toxicity study in monkeys, and the lowest predicted to be more therapeutically relevant. A pill gun was used to place the capsule beyond the root of the animals’ tongues and their mouths were held loosely closed for approximately 30 sec to allow them to move the jaw and swallow the capsule. Immediately following capsule administration, 20 mL of water was given by mouth and then the mouth was opened to ensure the capsule was swallowed. Blood samples (~0.6 mL) were collected up to 72 h from three animals per dose group, and up to 4 h from the remaining two animals in each group, at the same time points described for rats. […] Blood samples were collected with a syringe from a peripheral blood vessel from restrained, non-sedated animals, immediately transferred to pre-chilled tubes containing ~1 mg K2EDTA•2H20 and 20 μL of 5 mM dichlorvos solution, mixed and placed on ice until plasma was prepared by centrifugation as described for rats. Immediately after centrifugation, plasma samples were extracted with 4 volumes ISS2, and the supernatants were clarified by centrifugation (12,000 rpm, 10 min, 4°C) and stored at ≤ -60°C until analyzed by LC-MS/MS as described below. After the 4-hr blood collection, two monkeys per dose group were anesthetized with intravenous injection of pentobarbital sodium (60 mg/kg) and then euthanized as described for rats. […] All analytes were quantitated by LC-MS/MS as described below.
For the analysis of AT-9010 in rat tissue homogenate supernatant, aliquots were diluted 1:2 with water and injected onto an Agilent Zorbax Extend C18 5 μm, 2.1 × 50 mm column and a Sciex API 4000 mass spectrometer (ESI positive ion, MRM mode). Mobile phases A (0.001% ammonia and 0.18 mM DBAA in water (1:1, v/v) and B (10 mM dimethylhexylamine (DMHA) and 3 mM AA in 50% ACN in water) were used to elute samples (60 μL) at 0.7 mL/min with 2% B for 0.8 min followed by a linear gradient to 30% B over 0.4 min, isocratic elution at 30% B for 0.4 min, a linear gradient to 95% B over 0.4 min, and ending with 95% B for 0.4 min. The analysis of AT-9010 in monkey tissue homogenate supernatant was the same except the sample injection volume was 20 μL. Attempts to measure tissue levels of other potentially formed TPs, including 2,6-diaminopurine-2’-F-2’-C-methylribosyl-5’-triphosphate and 2-amino-6-methylaminopurine-2’-F-2’-C-methylribosyl-5’-triphosphate (M2-TP), also used this method.
For the analysis of M2 and M3 in monkey tissue homogenate supernatant, aliquots were diluted 1:3 with water and injected onto an Acuity HSS T3 1.8 μm, 2.1 × 50 mm column and a Sciex API 6500 mass spectrometer (ESI positive ion, MRM mode). Mobile phases A (0.3% FA and 10 mM AA in water and B (0.3% FA and 10 mM AA in 95% ACN in water) were used to elute samples (1 μL) at 0.6 mL/min with 0% B for 0.4 min followed by linear gradients to 30% B over 0.5 min and to 95% B over 0.2 min, ending with isocratic elution at 95% B for 0.4 min.

With `C[C@@]1(F)[C@H](O)[C@@H](COP(=O)(O)OP(=O)(O)OP(=O)(O)O)O[C@H]1n1cnc2c(=O)[nH]c(N)nc21` [AT-9010], the figures for the “AUC0-24, intracellular” value in data set [1] (10 μM AT-511), in data set [2] (10 μM AT-511) and in data set [3] (10 μM AT-511) were 1363 pmol*h/10^6 cells, 1177 pmol*h/10^6 cells and 229 pmol*h/10^6 cells, respectively. Besides, the “Cmax, intracellular” value in data set [1] (10 μM AT-511, 0-24 h) stood at 69.2 ± 8.8 pmol/10^6 cells; in data set [2] (10 μM AT-511, 0-24 h) it was 85.4 ± 0.4 pmol/10^6 cells; in data set [3] (10 μM AT-511, 0-24 h) it was 15.4 ± 6.6 pmol/10^6 cells. Besides, the “fold higher mean liver concentration than parent phosphoramidate” value in data set [4] (30 mg/kg, 4 h) is 34 fold. The “Mean Concentration at 4 hr Postdose, Liver” value in data set [4] (AT-527 30 mg/kg oral) is 545 ± 349 pmol/g and 545 pmol/g; in data set [4] (AT-527 100 mg/kg oral), 1890 ± 519 pmol/g and 1890 pmol/g; in data set [4] (AT-527 300 mg/kg oral) it was 968 pmol/g. For the same molecule, the “Liver/Heart Ratio” value in data set [4] (AT-527 30 mg/kg oral, 4 h) is 11^b; in data set [4] (AT-527 100 mg/kg oral, 4 h), 31^b. In addition, the figures for the “Mean Concentration at 4 hr Postdose, Heart” value in data set [4] (AT-527 30 mg/kg oral), in data set [4] (AT-527 100 mg/kg oral) and in data set [4] (AT-527 300 mg/kg oral) were 51.2^b pmol/g, 61.8^b pmol/g and 55.3^b pmol/g, respectively.
On to `C[C@@]1(F)[C@H](O)[C@@H](CO)O[C@H]1n1cnc2c(=O)[nH]c(N)nc21` [AT-273], for which the “intracellular levels of nucleoside metabolites” value in data set [1] (low to undetectable), in data set [2] (low to undetectable) and in data set [3] (low to undetectable) was less than 10 pmol/10^6 cells in each case. Besides, the “Mean Concentration at 4 hr Postdose, Liver” value stood at 267 pmol/g in data set [4] (AT-527 30 mg/kg oral), 672 pmol/g in data set [4] (AT-527 100 mg/kg oral) and 939 pmol/g in data set [4] (AT-527 300 mg/kg oral). Further, the “Liver/Heart Ratio” value in data set [4] (AT-527 30 mg/kg oral, 4 h) is given as 3.0; in data set [4] (AT-527 100 mg/kg oral, 4 h), 2.9; in data set [4] (AT-527 300 mg/kg oral, 4 h), 2.1. Also, the “Mean Concentration at 4 hr Postdose, Heart” value in data set [4] (AT-527 30 mg/kg oral) was 88.5 pmol/g; in data set [4] (AT-527 100 mg/kg oral) it was 229 pmol/g; in data set [4] (AT-527 300 mg/kg oral), 444 pmol/g.
